Measurements as given in US7763594B2, “Compositions for the treatment of osteoarthritis and to nourish the synovial fluid” (Bioiberica, S.A., priority 2005, dated 2010).

Legend:
[1] = system: metalloprotease activity (MMP-1-2-3-12-13); test: Inhibition of metalloprotease activity in IL-1β-stimulated human arthrosic chondrocytes (FRET substrate); format: cell-based; conditions: 24 hours preincubation, then 100 U/ml IL-1β for 24 hours; significance p<0.05
Experimental: Solutions were prepared with the two compositions of the invention. One of them contained 160 μg/ml of hyaluronic acid and 40 μg/ml of dermatan sulphate, and was compared to hyaluronic acid at a concentration of 160 μg/ml and to dermatan sulphate at a concentration of 40 μg/ml. The other composition contained 800 μg/ml of hyaluronic acid and 200 μg/ml of dermatan sulphate and was compared to hyaluronic acid at a concentration of 800 μg/ml and to dermatan sulphate at a concentration of 200 μg/ml. The chondrocytes were isolated from cartilage pieces (from knee or hip) from […] advanced osteoarthritis, by sequential enzymatic digestion: 1 hour with hyaluronidase (0.1 mg/ml), followed by 10 hours with collagenase (type IA, 2 mg/ml) at 37° C. in DMEM/Ham's F12 medium plus penicillin (100 U/ml) and streptomycin (100 μg/ml) in a controlled CO2 atmosphere. […] Cell viability was determined by the Trypan blue exclusion method, which was in excess of 95%. […] Subsequently, supernatants were transferred to a 96-well plaque for fluorescence analysis and the FRET substrate (QXLTM 520) was added for MMP-1-2-3-12-13. The plaque was shaked and fluorescence measured a different times with excitation and emission wavelengths set at 490 nm and 520 nm, respectively. […] Means and standard errors were calculated, and an analysis of variance and Dunnett's t-test were performed. […]

[2] = system: human osteoarthritic synoviocytes; test: Production of endogenous hyaluronic acid by human synoviocytes (ELISA of culture supernatant); format: cell-based
Experimental: The composition of the invention, the HA extraction and the HA fermentation were separately incubated with synoviocytes for 12 and 24-hour periods. The following concentrations were used, both of the composition of the invention and of the hyaluronic acids: 10 μg/ml, 100 μg/ml and 200 μg/ml.
Synovial tissues were obtained from three osteoarthritic joints.
Synovial tissue was introduced into a sterile vial with DMEM (Dulbecco's Modification of Eagle's Medium) (2%), penicillin (150 U/ml), streptomycin ([…]) and amphotericin B (2 μg/ml), and then placed in a refrigerator (temperature: 0-4° C.) for transferral to the cell culture area. The synovial tissue was diced into fragments approximately sized to 2×2×2 mm^3. The fragments were washed three times in culture medium (RPMI 2% P/S/A). 20 ml of culture medium with 10% trypsin was added, and then incubated in a water bath at 37° C. for 10-15 minutes. Subsequently, the synovium was digested with 25 ml of collagenase solution [2 mg/ml type II collagenase; 5% fetal calf serum (FCS); 2% P/S/A; 1% L-glutamine; and deoxyribonuclease I 0.1 mg/ml or 150 U/l in RPMI]. The vial was introduced into a rotary shaker at 37° C. for approximately 2-4 hours. The cells were strained through a nylon filter with 25 μm diameter pores. A cell count was conducted and the cells were grown to a density of 5,000 to 10,000 cell/cm^2 in culture bottles of 25 or 75 cm^2 surface. The culture medium used was RPM supplemented with 10% FCS, 1% P/S and 1% L-glutamine. The synoviocytes used in the experiments were all from passages 2-3.
Following a 24-hour period culture, the synoviocytes (100,000 cells per well in a 24-well plate with 250 μl of medium) were stimulated using the composition of the invention, the HA extraction and the HA fermentation for 12 and 24-hour periods. Then, the supernatant of the different wells was harvested. The endogenous hyaluronic acid content was measured using an ELISA (Corgenix Inc. USA).
Results are shown as the average of 9 individual experiments performed on the cultures. Results are expressed as averages±S.D. and S.E. The statistical analysis was done using a two-tailed unpaired Student's T-test. A statistical difference is considered significant when p<0.05.

For dermatan sulphate, the “reduction of metalloprotease activity (in words)” value [1] was “reduction of metalloprotease activity, albeit not at a statistically significant level”.

hyaluronic acid [HA extraction] was tested, and the “level of endogenous hyaluronic acid in supernatant” value (shortened to “level of endogenous hyaluronic acid”) ([2]; 12-hour period, 100 μg/ml) was 25,762 ng/ml, the “level of endogenous hyaluronic acid” value ([2]; 24-hour period, 100 μg/ml) was 27,634 ng/ml and the “level of endogenous hyaluronic acid” value ([2]; 24-hour period, 200 μg/ml) was 91,538 ng/ml.

With hyaluronic acid [hyaluronic acid (HA)] the “reduction of metalloprotease activity (in words)” value [1] was “reduction of metalloprotease activity, albeit not at a statistically significant level”.

For sodium hyaluronate [HA fermentation], the “level of endogenous hyaluronic acid” value ([2]; 12-hour period, 100 μg/ml) was 9,724 ng/ml, the “level of endogenous hyaluronic acid” value ([2]; 12-hour period, 200 μg/ml) was 62,618 ng/ml and the “level of endogenous hyaluronic acid” value ([2]; 24-hour period, 100 μg/ml) was 15,706 ng/ml. For the same substance, the “level of endogenous hyaluronic acid” value ([2]; 24-hour period, 200 μg/ml) was 72,594 ng/ml.
